Measurements reported in ChEMBL document CHEMBL4041509, “Structure-activity relationship study of novel 2-aminobenzofuran derivatives as P-glycoprotein inhibitors” (Eur J Med Chem, 2017).
Calls of active or inactive are those of the source. The calls are words filed in the database; no cut-off is given here.

Key:
[1] = target: T1, ATP-dependent translocase ABCB1 (Homo sapiens, UniProt P08183); experiment: Inhibition of ABCB1 (unknown origin) expressed in human Flp-In-293 cells assessed as potentiation of vincristine-induced cytotoxicity by SRB assay; assay type: cell-based
[2] = target: T1, ATP-dependent translocase ABCB1; experiment: Inhibition of ABCB1 (unknown origin) expressed in Flp-In-293 cells assessed as increase in calcein-AM uptake at 5 uM preincubated for 30 mins followed by calcein-AM addition measured after 30 mins by fluorescence spectrometric method relative to control; assay type: cell-based; conditions: 0.5 h
[3] = target: T1, ATP-dependent translocase ABCB1; experiment: Inhibition of ABCB1 (unknown origin) expressed in Flp-In-293 cells assessed as increase in calcein-AM uptake at 10 uM preincubated for 30 mins followed by calcein-AM addition measured after 30 mins by fluorescence spectrometric method relative to control; assay type: cell-based; conditions: 0.5 h
[4] = system: HEK293; experiment: Cytotoxicity against human Flp-In-293 cells assessed as reduction in cell viability by SRB assay; assay type: cell-based
[5] = system: HEK293; experiment: Cytotoxicity against human Flp-In-293 cells expressing MDR1 assessed as reduction in cell viability by SRB assay; assay type: ADME, cell-based
[6] = system: HeLa S3; experiment: Cytotoxicity against human HeLaS3 assessed as reduction in cell viability by SRB assay; assay type: cell-based
[7] = Cytotoxicity against human KBVIN assessed as reduction in cell viability by SRB assay; assay type: cell-based
[8] = target: T1, ATP-dependent translocase ABCB1; experiment: Inhibition of ABCB1 (unknown origin) expressed in human Flp-In-293 cells assessed as potentiation of vincristine-induced cytotoxicity at 1 uM by SRB assay relative to control; assay type: cell-based
[9] = system: HEK293; experiment: Potentiation of vincristine-induced cytotoxicity against human Flp-In-293 cells at 1 uM by SRB assay relative to control; assay type: functional
[10] = system: HEK293; experiment: Potentiation of vincristine-induced cytotoxicity against human Flp-In-293 cells at 2.5 uM by SRB assay relative to control; assay type: functional
[11] = system: HEK293; experiment: Potentiation of paclitaxel-induced cytotoxicity against human Flp-In-293 cells at 1 uM by SRB assay relative to control; assay type: functional
[12] = system: HEK293; experiment: Potentiation of paclitaxel-induced cytotoxicity against human Flp-In-293 cells at 2.5 uM by SRB assay relative to control; assay type: functional
[13] = system: HEK293; experiment: Potentiation of doxorubicin-induced cytotoxicity against human Flp-In-293 cells at 1 uM by SRB assay relative to control; assay type: functional
[14] = system: HEK293; experiment: Potentiation of doxorubicin-induced cytotoxicity against human Flp-In-293 cells at 2.5 uM by SRB assay relative to control; assay type: functional
[15] = target: T1, ATP-dependent translocase ABCB1; experiment: Inhibition of ABCB1 (unknown origin) expressed in human Flp-In-293 cells assessed as potentiation of vincristine-induced cytotoxicity at 2.5 uM by SRB assay relative to control; assay type: cell-based
[16] = target: T1, ATP-dependent translocase ABCB1; experiment: Inhibition of ABCB1 (unknown origin) expressed in human Flp-In-293 cells assessed as potentiation of paclitaxel-induced cytotoxicity at 1 uM by SRB assay relative to control; assay type: cell-based
[17] = target: T1, ATP-dependent translocase ABCB1; experiment: Inhibition of ABCB1 (unknown origin) expressed in human Flp-In-293 cells assessed as potentiation of paclitaxel-induced cytotoxicity at 2.5 uM by SRB assay relative to control; assay type: cell-based
[18] = target: T1, ATP-dependent translocase ABCB1; experiment: Inhibition of ABCB1 (unknown origin) expressed in human Flp-In-293 cells assessed as potentiation of doxorubicin-induced cytotoxicity at 1 uM by SRB assay relative to control; assay type: cell-based
[19] = target: T1, ATP-dependent translocase ABCB1; experiment: Inhibition of ABCB1 (unknown origin) expressed in human Flp-In-293 cells assessed as potentiation of doxorubicin-induced cytotoxicity at 2.5 uM by SRB assay relative to control; assay type: cell-based
[20] = species: Homo sapiens; experiment: Inhibition of P-gp in human HeLaS3 cells assessed as potentiation of vincristine-induced cytotoxicity at 1 uM by SRB assay relative to control; assay type: cell-based
[21] = species: Homo sapiens; experiment: Inhibition of P-gp in human HeLaS3 cells assessed as potentiation of vincristine-induced cytotoxicity at 2.5 uM by SRB assay relative to control; assay type: cell-based
[22] = species: Homo sapiens; experiment: Inhibition of P-gp in human HeLaS3 cells assessed as potentiation of paclitaxel-induced cytotoxicity at 1 uM by SRB assay relative to control; assay type: cell-based
[23] = species: Homo sapiens; experiment: Inhibition of P-gp in human HeLaS3 cells assessed as potentiation of paclitaxel-induced cytotoxicity at 2.5 uM by SRB assay relative to control; assay type: cell-based
[24] = species: Homo sapiens; experiment: Inhibition of P-gp in human HeLaS3 cells assessed as potentiation of doxorubicin-induced cytotoxicity at 1 uM by SRB assay relative to control; assay type: cell-based
[25] = species: Homo sapiens; experiment: Inhibition of P-gp in human HeLaS3 cells assessed as potentiation of doxorubicin-induced cytotoxicity at 2.5 uM by SRB assay relative to control; assay type: cell-based
[26] = species: Homo sapiens; experiment: Inhibition of P-gp in human KBVIN cells assessed as potentiation of vincristine-induced cytotoxicity at 1 uM by SRB assay relative to control; assay type: cell-based
[27] = species: Homo sapiens; experiment: Inhibition of P-gp in human KBVIN cells assessed as potentiation of vincristine-induced cytotoxicity at 2.5 uM by SRB assay relative to control; assay type: cell-based
[28] = species: Homo sapiens; experiment: Inhibition of P-gp in human KBVIN cells assessed as potentiation of paclitaxel-induced cytotoxicity at 1 uM by SRB assay relative to control; assay type: cell-based
[29] = species: Homo sapiens; experiment: Inhibition of P-gp in human KBVIN cells assessed as potentiation of paclitaxel-induced cytotoxicity at 2.5 uM by SRB assay relative to control; assay type: cell-based
[30] = species: Homo sapiens; experiment: Inhibition of P-gp in human KBVIN cells assessed as potentiation of doxorubicin-induced cytotoxicity at 1 uM by SRB assay relative to control; assay type: cell-based
[31] = species: Homo sapiens; experiment: Inhibition of P-gp in human KBVIN cells assessed as potentiation of doxorubicin-induced cytotoxicity at 2.5 uM by SRB assay relative to control; assay type: cell-based
[32] = target: T1, ATP-dependent translocase ABCB1; experiment: Inhibition of ABCB1 (unknown origin) expressed in human Flp-In-293 cells assessed as potentiation of paclitaxel-induced cytotoxicity by SRB assay; assay type: cell-based
[33] = target: T1, ATP-dependent translocase ABCB1; experiment: Inhibition of ABCB1 (unknown origin) expressed in human Flp-In-293 cells assessed as potentiation of doxorubicin-induced cytotoxicity by SRB assay; assay type: cell-based
[34] = species: Homo sapiens; experiment: Inhibition of P-gp in human HeLaS3 cells assessed as potentiation of paclitaxel-induced cytotoxicity by SRB assay; assay type: cell-based
[35] = species: Homo sapiens; experiment: Inhibition of P-gp in human HeLaS3 cells assessed as potentiation of vincristine-induced cytotoxicity by SRB assay; assay type: cell-based
[36] = species: Homo sapiens; experiment: Inhibition of P-gp in human HeLaS3 cells assessed as potentiation of doxorubicin-induced cytotoxicity by SRB assay; assay type: cell-based
[37] = species: Homo sapiens; experiment: Inhibition of P-gp in human KBVIN cells assessed as potentiation of vincristine-induced cytotoxicity by SRB assay; assay type: cell-based
[38] = species: Homo sapiens; experiment: Inhibition of P-gp in human KBVIN cells assessed as potentiation of paclitaxel-induced cytotoxicity by SRB assay; assay type: cell-based
[39] = species: Homo sapiens; experiment: Inhibition of P-gp in human KBVIN cells assessed as potentiation of doxorubicin-induced cytotoxicity by SRB assay; assay type: cell-based
[40] = system: HEK293; experiment: Effect on ABCB1 mRNA expression in human Flp-In-293 cells at 5 uM after 72 hrs by qRT-PCR method; assay type: functional, cell-based
[41] = system: HEK293; experiment: Effect on ABCB1 mRNA expression in human Flp-In-293 cells expressing ABCB1 at 5 uM after 72 hrs by qRT-PCR method; assay type: functional, cell-based
[42] = target: T1, ATP-dependent translocase ABCB1; experiment: Potency index, ratio of compound effect to verapamil effect for inhibition of ABCB1 (unknown origin) expressed in Flp-In-293 cells assessed as increase in calcein-AM uptake at 5 uM preincubated for 30 mins followed by calcein-AM addition measured after 30 mins by fluorescence spectrometric method; assay type: cell-based; conditions: 0.5 h

T1 sequence (P08183 whole entry): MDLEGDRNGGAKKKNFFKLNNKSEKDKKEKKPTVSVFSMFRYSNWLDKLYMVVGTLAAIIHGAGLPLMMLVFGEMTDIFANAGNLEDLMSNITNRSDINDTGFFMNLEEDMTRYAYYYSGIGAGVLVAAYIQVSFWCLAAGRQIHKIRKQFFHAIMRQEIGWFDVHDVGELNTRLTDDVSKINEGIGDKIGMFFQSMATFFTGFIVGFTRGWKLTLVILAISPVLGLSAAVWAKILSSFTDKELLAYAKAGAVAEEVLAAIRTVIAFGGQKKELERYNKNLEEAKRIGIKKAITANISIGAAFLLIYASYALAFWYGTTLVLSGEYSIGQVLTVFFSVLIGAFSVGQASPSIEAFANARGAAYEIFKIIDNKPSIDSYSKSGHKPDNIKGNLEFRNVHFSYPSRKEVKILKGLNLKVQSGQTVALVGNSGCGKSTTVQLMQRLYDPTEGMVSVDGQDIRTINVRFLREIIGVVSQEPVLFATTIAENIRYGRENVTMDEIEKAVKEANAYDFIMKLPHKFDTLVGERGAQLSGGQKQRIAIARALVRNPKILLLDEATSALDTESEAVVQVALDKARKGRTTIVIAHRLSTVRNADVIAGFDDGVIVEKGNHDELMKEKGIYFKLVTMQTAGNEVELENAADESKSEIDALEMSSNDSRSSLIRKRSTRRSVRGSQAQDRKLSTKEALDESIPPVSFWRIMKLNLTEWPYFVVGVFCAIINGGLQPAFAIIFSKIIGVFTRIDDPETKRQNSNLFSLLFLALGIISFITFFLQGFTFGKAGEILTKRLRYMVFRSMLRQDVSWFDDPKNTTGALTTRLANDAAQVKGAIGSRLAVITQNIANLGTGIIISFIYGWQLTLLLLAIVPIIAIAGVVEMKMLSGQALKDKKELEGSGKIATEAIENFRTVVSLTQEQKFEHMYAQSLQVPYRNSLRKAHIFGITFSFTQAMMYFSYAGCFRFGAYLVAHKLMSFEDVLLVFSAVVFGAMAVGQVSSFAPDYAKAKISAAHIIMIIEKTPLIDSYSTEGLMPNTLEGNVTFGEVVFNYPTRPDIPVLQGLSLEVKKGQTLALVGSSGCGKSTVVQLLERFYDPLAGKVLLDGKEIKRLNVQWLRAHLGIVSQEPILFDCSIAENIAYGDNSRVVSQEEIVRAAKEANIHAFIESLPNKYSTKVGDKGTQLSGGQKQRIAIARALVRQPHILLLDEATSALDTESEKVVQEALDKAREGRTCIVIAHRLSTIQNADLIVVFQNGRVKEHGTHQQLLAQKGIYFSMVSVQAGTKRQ

In the case of `COc1ccc(-c2cc(OCCN3CCCC3)c3c(-c4cccs4)c(N)oc3c2)cc1`, the “inhibition (INH)” value [1] is reported as “Dose-dependent effect”, the “fold change (FC)” value [2] is reported as 6.78 and the “fold change (FC)” value [3] is reported as 10.4. For the same compound, the IC50 [4] was 33.5 µM, the IC50 [5] was 36.4 µM and the IC50 [6] was 38.1 µM. The IC50 [7] was 35.5 µM, the “fold change (FC)” value [8] was 2.58 and the “fold change (FC)” value [9] was 1.95. The “fold change (FC)” value [10] was 7.15, the “fold change (FC)” value [11] was 0.98 and the “fold change (FC)” value [12] was 1.39. The “fold change (FC)” value [13] was 0.98, the “fold change (FC)” value [14] was 0.97 and the “fold change (FC)” value [15] was 9.07. The “fold change (FC)” value [16] was 1.18, the “fold change (FC)” value [17] was 10.03 and the “fold change (FC)” value [18] was 2.65. The “fold change (FC)” value [19] was 6.14, the fold change (FC) [20] was 1.08 and the fold change (FC) [21] was 1.13. The fold change (FC) [22] was 3.69, the fold change (FC) [23] was 4.06 and the fold change (FC) [24] was 1.1. The fold change (FC) [25] was 1.47, the fold change (FC) [26] was 177 and the fold change (FC) [27] was 260. For the same compound, the fold change (FC) [28] was 2.8, the fold change (FC) [29] was 14.7 and the fold change (FC) [30] was 1.37. The fold change (FC) [31] was 1.94, the “inhibition (INH)” value [32] was “Dose-dependent effect” and the “inhibition (INH)” value [33] was “Dose-dependent effect”. The inhibition [34] was “Dose-dependent effect”, the inhibition [35] was “Dose-dependent effect” and the inhibition [36] was “Dose-dependent effect”. For the same compound, the inhibition [37] was “Dose-dependent effect”, the inhibition [38] was “Dose-dependent effect” and the inhibition [39] was “Dose-dependent effect”. For the same compound, the Activity [40] was “inactive” and the Activity [41] was “inactive”.
In the case of `CCN(CC)CCOc1cc(-c2ccc(OC)c(OC)c2)cc2oc(N)c(-c3cccs3)c12`, the “inhibition (INH)” value [1] is reported as “Dose-dependent effect”, the “fold change (FC)” value [2] is reported as 11.12 and the “fold change (FC)” value [3] is reported as 11.34. The IC50 [4] was 34.9 µM, the IC50 [5] was 31.2 µM and the IC50 [6] was 21.5 µM. For the same compound, the IC50 [7] was 18.5 µM, the “fold change (FC)” value [8] was 3.37 and the “fold change (FC)” value [9] was 7.01. For the same compound, the “fold change (FC)” value [10] was 8.57, the “fold change (FC)” value [11] was 1.35 and the “fold change (FC)” value [12] was 1.47. The “fold change (FC)” value [13] was 1.03, the “fold change (FC)” value [14] was 1.09 and the “fold change (FC)” value [15] was 17.95. The “fold change (FC)” value [16] was 2.49, the “fold change (FC)” value [17] was 13.68 and the “fold change (FC)” value [18] was 3.17. The “fold change (FC)” value [19] was 26.43, the fold change (FC) [20] was 1.23 and the fold change (FC) [21] was 1.21. It also gave a fold change (FC) [22] of 5.49, a fold change (FC) [23] of 3.85 and a fold change (FC) [24] of 0.8. It also gave a fold change (FC) [25] of 0.93, a fold change (FC) [26] of 240 and a fold change (FC) [27] of 246. The fold change (FC) [28] was 5.11, the fold change (FC) [29] was 38.7 and the fold change (FC) [30] was 1.39. For the same compound, the fold change (FC) [31] was 5.16, the “inhibition (INH)” value [32] was “Dose-dependent effect” and the “inhibition (INH)” value [33] was “Dose-dependent effect”. The inhibition [34] was “Dose-dependent effect”, the inhibition [35] was “Dose-dependent effect” and the inhibition [36] was “Dose-dependent effect”. For the same compound, the inhibition [37] was “Dose-dependent effect”, the inhibition [38] was “Dose-dependent effect” and the inhibition [39] was “Dose-dependent effect”. The Activity [40] was “inactive”, the Activity [41] was “inactive” and the Ratio [42] was 3.6.
